According to ChEMBL document CHEMBL5465560, “Selectivity Literature for EUbOPEN Chemogenomic Library” (2024):

How the values were obtained:
[1] = target: Insulin receptor (Homo sapiens, UniProt P06213); test: Selectivity interaction (Kinase panel (enzymatic assay)) EUB0000595a INSR
[2] = Selectivity interaction (KinomeScan (DiscoverX)) EUB0000045b CDK2H; conditions: at 1 µM
[3] = target: Mitogen-activated protein kinase 7 (Homo sapiens) (UniProt Q13164); test: Selectivity interaction (KinomeScan (DiscoverX)) EUB0001079a MAPK7; conditions: at 1 µM
[4] = target: T1, Phosphatidylinositol 4,5-bisphosphate 3-kinase catalytic subunit delta isoform (Homo sapiens) (UniProt O00329); test: Selectivity interaction (Adapta Assay) EUB0001632a PIK3CD; conditions: at 10 µM
T1 sequence (whole entry): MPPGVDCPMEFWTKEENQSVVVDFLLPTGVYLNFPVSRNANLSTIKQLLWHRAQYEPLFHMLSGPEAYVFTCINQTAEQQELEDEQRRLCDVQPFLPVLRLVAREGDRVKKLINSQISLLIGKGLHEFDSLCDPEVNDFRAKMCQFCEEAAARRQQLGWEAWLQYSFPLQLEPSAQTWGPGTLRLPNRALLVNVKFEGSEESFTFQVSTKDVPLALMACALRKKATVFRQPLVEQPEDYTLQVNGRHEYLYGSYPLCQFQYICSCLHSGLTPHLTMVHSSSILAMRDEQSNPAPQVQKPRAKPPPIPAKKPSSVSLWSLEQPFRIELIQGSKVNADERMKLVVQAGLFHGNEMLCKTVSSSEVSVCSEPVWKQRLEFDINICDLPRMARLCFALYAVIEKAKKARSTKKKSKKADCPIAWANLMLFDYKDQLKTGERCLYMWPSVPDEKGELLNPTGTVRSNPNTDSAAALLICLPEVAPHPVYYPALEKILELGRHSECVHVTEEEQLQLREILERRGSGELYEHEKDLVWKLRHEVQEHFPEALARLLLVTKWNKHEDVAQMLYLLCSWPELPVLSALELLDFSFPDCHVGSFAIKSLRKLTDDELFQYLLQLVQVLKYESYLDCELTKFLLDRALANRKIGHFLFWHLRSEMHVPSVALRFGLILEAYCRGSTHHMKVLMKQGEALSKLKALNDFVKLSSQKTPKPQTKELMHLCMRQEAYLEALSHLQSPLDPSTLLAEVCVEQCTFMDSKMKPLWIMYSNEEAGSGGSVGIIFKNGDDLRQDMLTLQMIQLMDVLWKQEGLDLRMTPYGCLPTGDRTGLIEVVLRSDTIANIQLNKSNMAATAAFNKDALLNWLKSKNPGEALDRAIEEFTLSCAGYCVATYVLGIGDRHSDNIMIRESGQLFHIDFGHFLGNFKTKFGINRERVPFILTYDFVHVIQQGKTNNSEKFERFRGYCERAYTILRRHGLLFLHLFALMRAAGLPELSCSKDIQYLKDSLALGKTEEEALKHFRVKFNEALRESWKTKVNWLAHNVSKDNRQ

[5] = target: Serine/threonine-protein kinase 32C (Homo sapiens) (UniProt Q86UX6); conditions: at 10 µM
Sequence of Serine/threonine-protein kinase 32C (Homo sapiens) (Q86UX6 whole entry): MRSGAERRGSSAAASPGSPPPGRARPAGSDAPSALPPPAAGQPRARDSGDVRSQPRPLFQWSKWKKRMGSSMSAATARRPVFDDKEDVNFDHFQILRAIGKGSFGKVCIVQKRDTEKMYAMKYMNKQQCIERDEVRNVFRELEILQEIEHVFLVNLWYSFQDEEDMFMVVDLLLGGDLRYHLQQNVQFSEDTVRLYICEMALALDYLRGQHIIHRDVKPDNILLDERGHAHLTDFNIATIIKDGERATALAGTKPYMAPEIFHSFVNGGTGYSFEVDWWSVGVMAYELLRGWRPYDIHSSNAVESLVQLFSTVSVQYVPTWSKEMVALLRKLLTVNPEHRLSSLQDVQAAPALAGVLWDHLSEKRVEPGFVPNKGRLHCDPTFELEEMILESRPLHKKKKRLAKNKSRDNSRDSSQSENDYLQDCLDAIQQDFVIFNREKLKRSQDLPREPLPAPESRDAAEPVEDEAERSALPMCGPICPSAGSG

[6] = target: T2, Muscarinic acetylcholine receptor M1 (Homo sapiens) (UniProt P11229); test: Selectivity interaction (Panel of non-epigenetic targets (kinases, GPCRs, ion channels, and transporters, Eurofins) ) EUB0000271b CHRM1; conditions: at 1 µM
T2 sequence (whole entry): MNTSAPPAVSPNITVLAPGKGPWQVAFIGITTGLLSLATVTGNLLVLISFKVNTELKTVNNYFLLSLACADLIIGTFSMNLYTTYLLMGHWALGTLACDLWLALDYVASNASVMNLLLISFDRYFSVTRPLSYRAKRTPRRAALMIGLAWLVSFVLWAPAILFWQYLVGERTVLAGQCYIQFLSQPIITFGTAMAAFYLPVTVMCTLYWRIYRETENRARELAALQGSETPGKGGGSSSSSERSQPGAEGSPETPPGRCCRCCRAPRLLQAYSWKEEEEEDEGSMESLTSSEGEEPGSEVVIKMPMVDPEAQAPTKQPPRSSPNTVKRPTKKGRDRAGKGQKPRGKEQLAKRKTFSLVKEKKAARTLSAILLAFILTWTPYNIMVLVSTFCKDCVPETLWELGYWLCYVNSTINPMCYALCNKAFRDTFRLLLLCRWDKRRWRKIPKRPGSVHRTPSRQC

[7] = target: T3, Mitogen-activated protein kinase 12 (Homo sapiens) (UniProt P53778); test: Selectivity interaction (Upstate Kinase Profiler service (Millipore)) EUB0000056c MAPK12; conditions: at 1 µM
T3 sequence (whole entry): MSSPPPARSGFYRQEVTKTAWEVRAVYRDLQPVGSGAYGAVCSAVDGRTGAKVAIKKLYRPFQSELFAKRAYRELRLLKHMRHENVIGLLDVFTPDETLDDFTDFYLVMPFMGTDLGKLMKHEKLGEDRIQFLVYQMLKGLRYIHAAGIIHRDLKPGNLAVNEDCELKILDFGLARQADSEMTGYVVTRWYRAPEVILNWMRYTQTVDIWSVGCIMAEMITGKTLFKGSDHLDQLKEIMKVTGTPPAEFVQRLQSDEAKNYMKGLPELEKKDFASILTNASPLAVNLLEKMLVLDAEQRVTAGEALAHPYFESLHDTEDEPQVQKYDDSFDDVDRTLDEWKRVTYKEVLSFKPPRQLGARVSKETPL

[8] = target: Mitogen-activated protein kinase 8 (Homo sapiens, UniProt P45983); test: Selectivity interaction (Kinase panel (literature)) EUB0001199aCl MAPK8; conditions: at 1 µM
Sequence of Mitogen-activated protein kinase 8 (P45983 whole entry): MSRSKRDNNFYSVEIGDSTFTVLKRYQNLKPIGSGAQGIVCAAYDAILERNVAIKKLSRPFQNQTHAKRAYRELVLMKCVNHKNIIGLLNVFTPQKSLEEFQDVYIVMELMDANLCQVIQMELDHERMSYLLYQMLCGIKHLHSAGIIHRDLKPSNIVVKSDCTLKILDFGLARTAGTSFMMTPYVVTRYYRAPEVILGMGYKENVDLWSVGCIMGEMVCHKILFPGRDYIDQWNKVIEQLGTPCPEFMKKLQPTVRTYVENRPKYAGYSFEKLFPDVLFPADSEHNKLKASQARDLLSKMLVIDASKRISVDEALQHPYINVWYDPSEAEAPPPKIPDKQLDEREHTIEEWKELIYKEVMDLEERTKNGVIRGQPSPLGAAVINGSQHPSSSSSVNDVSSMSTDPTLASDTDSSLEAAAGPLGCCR

[9] = target: Serine/threonine-protein kinase 32A (Homo sapiens) (UniProt Q8WU08); test: Selectivity interaction (KinomeScan (DiscoverX)) EUB0000618a STK32A; conditions: at 10 µM
Sequence of Serine/threonine-protein kinase 32A (Homo sapiens) (Q8WU08 whole entry): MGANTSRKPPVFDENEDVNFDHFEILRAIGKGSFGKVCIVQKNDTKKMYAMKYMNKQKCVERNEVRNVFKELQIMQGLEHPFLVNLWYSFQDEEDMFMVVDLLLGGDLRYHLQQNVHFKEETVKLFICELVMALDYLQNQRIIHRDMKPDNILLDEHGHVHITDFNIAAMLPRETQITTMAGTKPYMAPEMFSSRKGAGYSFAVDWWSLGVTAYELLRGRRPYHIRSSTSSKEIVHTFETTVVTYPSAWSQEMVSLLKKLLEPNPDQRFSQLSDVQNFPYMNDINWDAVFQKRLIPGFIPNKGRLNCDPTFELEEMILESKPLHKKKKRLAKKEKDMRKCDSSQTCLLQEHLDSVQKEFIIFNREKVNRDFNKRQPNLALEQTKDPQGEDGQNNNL

[10] = target: Proto-oncogene tyrosine-protein kinase ROS (Homo sapiens) (UniProt P08922); test: Selectivity interaction (KinomeScan (DiscoverX)) EUB0000618a ROS1; conditions: at 10 µM
Sequence of Proto-oncogene tyrosine-protein kinase ROS (Homo sapiens) (P08922 whole entry): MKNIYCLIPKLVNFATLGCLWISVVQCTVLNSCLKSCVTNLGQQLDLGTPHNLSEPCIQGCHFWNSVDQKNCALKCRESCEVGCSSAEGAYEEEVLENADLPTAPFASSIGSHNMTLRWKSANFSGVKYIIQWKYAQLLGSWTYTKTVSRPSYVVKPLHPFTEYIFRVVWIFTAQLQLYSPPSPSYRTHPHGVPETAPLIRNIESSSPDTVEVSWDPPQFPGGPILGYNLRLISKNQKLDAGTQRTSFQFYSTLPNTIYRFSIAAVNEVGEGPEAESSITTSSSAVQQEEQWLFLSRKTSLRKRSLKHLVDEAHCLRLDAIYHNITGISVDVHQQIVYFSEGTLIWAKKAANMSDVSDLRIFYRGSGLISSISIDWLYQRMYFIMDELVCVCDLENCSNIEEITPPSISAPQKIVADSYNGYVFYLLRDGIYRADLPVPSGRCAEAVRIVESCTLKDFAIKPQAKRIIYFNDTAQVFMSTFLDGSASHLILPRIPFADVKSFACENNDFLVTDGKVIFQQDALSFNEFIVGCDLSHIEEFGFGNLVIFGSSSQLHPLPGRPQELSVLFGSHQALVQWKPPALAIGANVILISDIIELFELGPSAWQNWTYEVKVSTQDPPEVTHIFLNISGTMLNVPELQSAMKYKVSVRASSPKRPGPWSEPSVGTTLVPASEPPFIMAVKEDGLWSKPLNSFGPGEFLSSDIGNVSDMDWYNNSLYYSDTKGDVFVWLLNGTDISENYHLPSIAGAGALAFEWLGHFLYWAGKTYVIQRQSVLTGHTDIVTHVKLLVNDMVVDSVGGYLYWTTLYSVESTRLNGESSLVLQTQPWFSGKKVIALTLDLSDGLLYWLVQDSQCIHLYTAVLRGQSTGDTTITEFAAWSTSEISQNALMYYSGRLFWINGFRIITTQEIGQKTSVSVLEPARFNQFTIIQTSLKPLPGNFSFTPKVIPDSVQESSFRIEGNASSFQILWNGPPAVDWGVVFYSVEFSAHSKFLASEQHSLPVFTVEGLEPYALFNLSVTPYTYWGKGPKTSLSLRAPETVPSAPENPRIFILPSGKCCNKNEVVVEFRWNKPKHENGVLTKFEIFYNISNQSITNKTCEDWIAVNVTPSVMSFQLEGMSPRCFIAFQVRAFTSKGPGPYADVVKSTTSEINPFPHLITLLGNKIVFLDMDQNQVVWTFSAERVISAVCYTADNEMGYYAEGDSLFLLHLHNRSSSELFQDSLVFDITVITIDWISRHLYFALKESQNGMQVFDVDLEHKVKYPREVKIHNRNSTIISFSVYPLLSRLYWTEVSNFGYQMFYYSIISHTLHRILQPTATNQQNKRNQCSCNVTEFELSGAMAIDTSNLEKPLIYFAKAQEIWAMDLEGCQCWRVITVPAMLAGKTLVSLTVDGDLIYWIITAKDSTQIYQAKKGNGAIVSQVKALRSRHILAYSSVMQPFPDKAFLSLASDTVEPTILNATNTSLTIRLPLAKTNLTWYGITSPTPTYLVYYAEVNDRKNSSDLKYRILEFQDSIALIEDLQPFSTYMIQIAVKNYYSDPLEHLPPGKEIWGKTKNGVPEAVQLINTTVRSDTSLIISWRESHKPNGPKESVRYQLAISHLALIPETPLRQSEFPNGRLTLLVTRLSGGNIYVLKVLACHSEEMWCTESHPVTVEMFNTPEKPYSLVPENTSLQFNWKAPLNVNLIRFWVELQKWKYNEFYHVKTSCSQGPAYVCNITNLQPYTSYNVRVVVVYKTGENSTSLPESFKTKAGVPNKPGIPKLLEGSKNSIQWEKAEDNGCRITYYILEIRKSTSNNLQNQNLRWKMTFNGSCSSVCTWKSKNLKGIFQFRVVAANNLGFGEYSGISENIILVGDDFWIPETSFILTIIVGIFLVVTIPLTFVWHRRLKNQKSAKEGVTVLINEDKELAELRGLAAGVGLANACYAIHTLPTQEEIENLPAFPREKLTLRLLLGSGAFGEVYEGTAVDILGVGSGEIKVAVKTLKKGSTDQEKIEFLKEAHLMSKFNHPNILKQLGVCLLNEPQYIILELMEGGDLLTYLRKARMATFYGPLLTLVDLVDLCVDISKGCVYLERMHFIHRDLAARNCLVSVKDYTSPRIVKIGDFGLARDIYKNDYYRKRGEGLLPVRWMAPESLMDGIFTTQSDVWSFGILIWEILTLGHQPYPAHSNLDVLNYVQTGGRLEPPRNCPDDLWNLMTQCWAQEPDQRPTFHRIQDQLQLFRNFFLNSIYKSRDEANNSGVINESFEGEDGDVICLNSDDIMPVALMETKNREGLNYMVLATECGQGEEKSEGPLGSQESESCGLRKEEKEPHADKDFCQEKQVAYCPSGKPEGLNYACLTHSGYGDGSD

[11] = target: T4, Dual specificity mitogen-activated protein kinase kinase 6 (Homo sapiens) (UniProt P52564); test: Selectivity interaction (ActivX KiNativ screen (kinase selectivity in THP-1 cell lysates)) EUB0000639a MAP2K6; assay type: subcellular; conditions: lysate, at 1 µM
T4 sequence (whole entry): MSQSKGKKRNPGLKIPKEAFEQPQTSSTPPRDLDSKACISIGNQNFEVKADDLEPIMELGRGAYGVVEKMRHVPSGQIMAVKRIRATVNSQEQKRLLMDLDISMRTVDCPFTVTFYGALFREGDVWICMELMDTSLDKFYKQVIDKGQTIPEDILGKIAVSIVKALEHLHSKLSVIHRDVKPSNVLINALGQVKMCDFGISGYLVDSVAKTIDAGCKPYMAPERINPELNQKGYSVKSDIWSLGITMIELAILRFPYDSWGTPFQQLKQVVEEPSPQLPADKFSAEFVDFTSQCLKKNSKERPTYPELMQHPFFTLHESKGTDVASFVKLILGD

[12] = target: Ribosomal protein S6 kinase alpha-1 (Homo sapiens, UniProt Q15418); test: Selectivity interaction (ActivX KiNativ screen (kinase selectivity in THP-1 cell lysates)) EUB0000639a RPS6KA1; assay type: subcellular; conditions: lysate, at 0.2 µM
Sequence of Ribosomal protein S6 kinase alpha-1 (Q15418 whole entry): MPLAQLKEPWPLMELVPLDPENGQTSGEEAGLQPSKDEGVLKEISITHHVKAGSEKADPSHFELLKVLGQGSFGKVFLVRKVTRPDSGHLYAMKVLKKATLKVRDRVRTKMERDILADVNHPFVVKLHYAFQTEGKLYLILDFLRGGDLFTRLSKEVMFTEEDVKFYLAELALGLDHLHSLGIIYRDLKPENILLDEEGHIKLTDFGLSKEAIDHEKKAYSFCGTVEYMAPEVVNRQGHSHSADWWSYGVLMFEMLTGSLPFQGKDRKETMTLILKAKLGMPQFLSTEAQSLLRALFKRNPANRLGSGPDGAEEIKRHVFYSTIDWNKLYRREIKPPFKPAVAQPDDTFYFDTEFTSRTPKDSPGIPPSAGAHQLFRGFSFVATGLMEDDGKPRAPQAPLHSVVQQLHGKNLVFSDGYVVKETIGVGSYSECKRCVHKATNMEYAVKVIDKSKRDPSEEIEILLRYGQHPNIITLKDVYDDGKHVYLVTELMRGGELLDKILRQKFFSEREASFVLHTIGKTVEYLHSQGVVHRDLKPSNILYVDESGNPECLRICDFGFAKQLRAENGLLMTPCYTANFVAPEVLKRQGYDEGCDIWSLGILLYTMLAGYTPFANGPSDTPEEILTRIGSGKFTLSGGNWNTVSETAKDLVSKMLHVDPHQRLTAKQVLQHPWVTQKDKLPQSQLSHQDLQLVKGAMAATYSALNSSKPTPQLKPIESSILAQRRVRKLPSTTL

With `COCC(=O)NC/C=C/c1ccc2ncnc(Nc3ccc(Oc4ccc(C)nc4)c(C)c3)c2c1` [CP-724714] the IC50 [1] was over 10 µM.
`C=CC(=O)Nc1cc(-n2c(=O)ccc3cnc4ccc(-c5ccc(NS(C)(=O)=O)cc5)cc4c32)ccc1C` showed a % of control [2] of 100%.
Compound `Nc1cnc(N2CCc3cc(S(=O)(=O)Nc4c(F)cc(Cl)cc4F)cc(N4CCCC4=O)c32)nc1` [TP-020n] has a % of control [3] of 100%.
In the case of `Cn1cc(-n2cnc3c(NCc4nc5cc(Cl)c(Cl)cc5[nH]4)nc(N4CCOCC4)nc32)cn1`, the % of inhibition [4] is reported as 66.6%.
`Cc1cc([C@@H](C)Nc2ccccc2C(=O)O)c2nc(N3CCOCC3)cc(=O)n2c1` [AZD-6482] showed a % of control [5] of 82%.
For `Cc1cc(C)cc([C@@H]2c3cc(C)ccc3NC(=O)CN2C(=O)c2ccc(Br)s2)c1`, the % of inhibition [6] was -2%.
For `Cc1ccc(-c2ccc3c(ccc4sc5c(c43)NC[C@@H](C)NC5=O)n2)cn1`, the % of inhibition [7] was -15%.
`CN1Cc2nccc(-c3cn(C)nc3-c3ccc(F)cc3)c2C1=O` showed a % of inhibition [8] of -2%.
With `O[C@H]1CC[C@H](Nc2ncc3nc(Nc4c(F)cc(F)cc4F)n([C@H]4CCOC4)c3n2)CC1` the % of control [9] was 62% and the % of control [10] was 95%.
In the case of `CC[C@@H]1[C@H](F)C(=O)N[C@@H]1COc1nccc2cc(C(N)=O)c(OC)cc12` [ZIMLOVISERTIB], the % of inhibition [11] is reported as 17% and the % of inhibition [12] is reported as -12.2%.
